Results as given in patent US11396517B1, “Exo-aza spiro inhibitors of menin-MLL interaction” (Janssen Pharmaceutica NV, priority 2017, dated 2022).
Where two headings read alike, the source gives them in different places.

Tests used:
menin = target: T1, menin (Homo sapiens, UniProt O00255, T541A); test: Menin/MLL homogenous time-resolved fluorescence (HTRF) assay; type: binding
T1 construct: Menin (a.a. 1-610-6×his tag)
T1 sequence (O00255 with tags, fused parts or gaps T541A): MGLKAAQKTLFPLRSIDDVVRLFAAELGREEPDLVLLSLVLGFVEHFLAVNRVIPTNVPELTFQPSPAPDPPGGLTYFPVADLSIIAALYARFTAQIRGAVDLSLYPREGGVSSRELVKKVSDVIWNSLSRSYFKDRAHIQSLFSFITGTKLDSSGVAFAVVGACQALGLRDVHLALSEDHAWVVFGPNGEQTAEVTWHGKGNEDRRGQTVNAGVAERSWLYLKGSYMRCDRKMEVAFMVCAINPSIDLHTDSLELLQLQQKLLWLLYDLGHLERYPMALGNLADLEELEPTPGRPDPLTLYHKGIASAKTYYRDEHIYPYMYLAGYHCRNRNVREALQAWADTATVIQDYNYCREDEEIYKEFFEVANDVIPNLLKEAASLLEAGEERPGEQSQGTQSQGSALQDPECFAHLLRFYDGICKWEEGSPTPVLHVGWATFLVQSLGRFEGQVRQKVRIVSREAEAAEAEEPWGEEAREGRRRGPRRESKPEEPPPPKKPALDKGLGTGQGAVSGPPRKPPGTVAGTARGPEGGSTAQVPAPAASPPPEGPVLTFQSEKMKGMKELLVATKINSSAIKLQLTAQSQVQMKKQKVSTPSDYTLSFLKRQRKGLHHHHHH
Outline: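 Terbium-labeled menin (aa 1-610, His-tagged; […]) preincubated 5 min with compound, then 75 nM FITC-MBM1 peptide for 15 min, ambient, Tris pH 7.5, 0.5% DMSO. HTRF 520/490 ratio; 11-point 3-fold titration; IC50 from % inhibition fit.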

MV-4-11 = test: Proliferation assay A (spheroid assay) MV-4-11; type: cell-based, human; settings: MV-4-11 cells, 8 d, AUC of confluence against time, absolute IC50, read-out: (3a) Spheroid assay MV-4-11 (IC50(μM)) Assay A
Protocol: 3a) Proliferation Assay A
The anti-proliferative effect of menin/MLL protein/protein interaction inhibitor test compounds was assessed in human leukemia cell lines. The cell lines MV-4-11 and MOLM14 harbor MILL translocations and express the MILL fusion proteins MLL-AF4 and MLL-AF9, respectively, as well as the wildtype protein from the second allele. […] K562 was used as a control cell line containing two MLL wildtype alleles in order to exclude compounds that display general cytotoxic effects.
MV-4-11 and MOLM14 were cultured in RPMI-1640 (Sigma Aldrich) supplemented with 10% fetal bovine serum (HyClone), 2 mM L-glutamine (Sigma Aldrich) and 50 μg/ml gentamycin (Gibco). K562 were propagated in RPMI-1640 (Sigma Aldrich) supplemented with 20% fetal bovine serum (HyClone), 2 mM L-glutamine (Sigma Aldrich) and 50 μg/ml gentamycin (Gibco).
In order to assess the anti-proliferative effects, 1,500 MV-4-11, 300 MOLM14 or 750 K562 cells were seeded in 200 μl media per well in 96-well round bottom, ultra-low attachment plates (Costar, catalogue number 7007). Cell seeding numbers were chosen based on growth curves to ensure linear growth throughout the experiment. Test compounds were added at different concentrations and the DMSO content was normalized to 0.3%. Cells were incubated for 8 d at 37° C. and 5% CO2. Spheroid like growth was monitored in real-time by live-cell imaging (IncuCyteZOOM, Essenbio, 4× objective) acquiring one image every four hours for 8 d. Confluence (%) as a measure of spheroid size was determined using an integrated analysis tool.
In order to determine the cumulative effect of the test compounds over time, the area under the curve (AUC) in a plot of confluence against time was calculated. Confluence at the beginning of the experiment (t=0) was used as baseline for the AUC calculation.
Absolute IC50 values were calculated according to the following procedure: % Control=(AUC sample/AUC control)*100
AUC control mean AUC of control values (cells without compound/DMSO as vehicle control)
A non-linear curve fit was applied using the least squares (ordinary) fit method to the plot of % control versus compound concentration. Based on this, the absolute IC50 value (half maximal inhibitory concentration of the test compound causing an anti-proliferative effect of 50% relative to the vehicle control) was calculated.

MOLM14 = test: Proliferation assay B (spheroid assay) MOLM14; type: cell-based, human; settings: MOLM14 cells, confluence at day 8, absolute IC50, read-out: (3b) Spheroid assay MOLM14 (IC50(μM)) Assay B
Outline: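 Leukemia cells grown as spheroids in ultra-low-attachment round-bottom wells with compound at 0.3% DMSO for 8 d at 37 °C. Confluence imaged at day 8 as spheroid size, normalized between DMSO and 1 μM staurosporine controls; absolute IC50 from sigmoidal fit with bounds fixed at 0 and 100%.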

[1] = location 2, read-out: (2) location 2 Menin HTRF assay (IC50 (nM))
[2] = location 1, read-out: (2) location 1 Menin HTRF assay (IC50 (nM))

| SMILES | IC50 (menin; [1]) | IC50 (MV-4-11; Homo sapiens, MV4-11, 192 h) | further results |
| --- | --- | --- | --- |
| O=S(=O)(NC1CC2(CCN(c3ncnc4sc(CC(F)(F)F)cc34)C2)C1)c1ccccc1 (mixture of isomers) [Compound 22] | 450 nM | 3.55 µM |  |
| FC(F)(F)Cc1cc2c(N3CCC4(CC(Nc5ccccc5)C4)C3)ncnc2s1 (mixture of isomers) [Compound 35] | 48.6 nM | 4.9 µM |  |
| CN(C)CC1CC2(CCN(c3ncnc4sc(CC(F)(F)F)cc34)C2)C1 (mixture of isomers) [Compound 196] | 133 nM | 3.91 µM |  |
| Nc1nc(N2CCC3(CC(NCc4ccccc4)C3)C2)c2cc(CC(F)(F)F)sc2n1 (mixture of isomers) [Compound 263] | 47.3 nM | 1.23 µM |  |
| N#CCc1ccc(NC2CC3(CCN(c4nc(N)nc5sc(CC(F)(F)F)cc45)C3)C2)cc1 (mixture of isomers) [Compound 377] | 7.5 nM | 1.12 µM |  |
| CNc1nc(N2CCC3(CC(Nc4ccc5[nH]c(=O)[nH]c5c4)C3)C2)c2cc(CC(F)(F)F)sc2n1 (mixture of isomers) [Compound 393] | 68.3 nM | 2.6 µM |  |
| CNS(=O)(=O)c1ccc(NC2CCC3(C2)CN(c2ncnc4sc(CC(F)(F)F)cc24)C3)cc1 (racemic) [Compound 279] | 82.9 nM | > 3.75 µM |  |
| FC(F)(F)Cc1cc2c(N3CCC4(CCC(NCc5ccccc5)CC4)C3)ncnc2s1 (single isomer, unassigned) [Compound 2] | 84.5 nM | 1.64 µM | IC50 (menin; [2]): 91.2 nM |
| FC(F)(F)Cc1cc2c(N3CC[C@]4(CC[C@@H](NCc5ccccc5)C4)C3)ncnc2s1 (single isomer, unassigned) [Compound 5] | 63.8 nM |  | IC50 (menin; [2]): 304 nM; IC50 (MV-4-11): 1.69 µM |
| CNc1nc(N2CCC3(CC(Nc4ccccc4)C3)C2)c2cc(CC(F)(F)F)sc2n1 (single isomer, unassigned) [Compound 269] | 78.6 nM | > 3.75 µM |  |
| CNS(=O)(=O)c1ccc(N[C@H]2CCC3(C2)CN(c2ncnc4sc(CC(F)(F)F)cc24)C3)cc1 (single isomer, unassigned) [Compound 291] | 51.9 nM | > 3.75 µM |  |
| O=c1[nH]c2ccc(N[C@@H]3CCC4(C3)CN(c3ncnc5sc(CC(F)(F)F)cc35)C4)cc2[nH]1 (single isomer, unassigned) [Compound 299] | 94.8 nM | > 3.75 µM |  |
| O=c1[nH]c2ccc(NC3CC4(CCN(c5ncnc6sc(CC(F)(F)F)cc56)C4)C3)cc2[nH]1 (single isomer, unassigned) [Compound 321] | 915 nM |  | IC50 (MV-4-11): > 3.75 µM |
| N#CCc1ccc(NC2CC3(CCN(c4nc(N)nc5sc(CC(F)(F)F)cc45)C3)C2)cc1 (single isomer, unassigned) [Compound 378] | 42.9 nM | > 3.75 µM |  |
| FC(F)(F)Cc1cc2c(N3CC4(CCC(Nc5ccccc5)C4)C3)ncnc2s1 (stereo not drawn) [Compound 7] | 658 nM | 13.5 µM |  |
| CS(=O)(=O)Nc1ccc(C(=O)NC2CC3(CCN(c4ncnc5sc(CC(F)(F)F)cc45)C3)C2)cc1 (stereo not drawn) [Compound 27] | 585 nM | 11.9 µM |  |
| FC(F)(F)Cc1cc2c(N3CCC4(CC(CNc5ccccc5)C4)C3)ncnc2s1 (stereo not drawn) [Compound 38] | 447 nM | 5.21 µM |  |
| CN(CC1CC2(CCN(c3ncnc4sc(CC(F)(F)F)cc34)C2)C1)c1ccccc1 (stereo not drawn) [Compound 41] | 339 nM | 10 µM |  |
| CS(=O)(=O)N1CCN(CC(O)c2ccc(NC3CC4(CCN(c5ncnc6sc(CC(F)(F)F)cc56)C4)C3)cc2)CC1 (stereo not drawn) [Compound 354] | 43.7 nM |  | IC50 (MOLM14; Homo sapiens, MOLM-14, 192 h): > 3.75 µM |
| O=C(c1ccc(NC2CC3(C2)CN(c2ncnc4sc(CC(F)(F)F)cc24)C3)cc1)N1CCOCC1 [Compound 423] | 135 nM |  | IC50 (MOLM14; Homo sapiens, MOLM-14, 192 h): > 3.75 µM |

Continued by falling IC50 (menin; [1]), values first:

| IC50 (menin; [1]) | IC50 (MV-4-11; Homo sapiens, MV4-11, 192 h) | SMILES | further results |
| --- | --- | --- | --- |
| 41.6 nM | 3.71 µM | O=c1[nH]c2ccc(NC3CC4(CCN(c5ncnc6sc(CC(F)(F)F)cc56)C4)C3)cc2[nH]1 (single isomer, unassigned) [Compound 320] |  |
| 37.7 nM | 3.16 µM | N#CCc1ccc(NC2CC3(CCN(c4ncnc5sc(CC(F)(F)F)cc45)C3)C2)c(Cl)c1 (single isomer, unassigned) [Compound 208] |  |
| 30.6 nM |  | CS(=O)(=O)N1CCC(C(N)=O)(c2ccc(NC3CC4(CCN(c5ncnc6sc(CC(F)(F)F)cc56)C4)C3)cc2)CC1 (stereo not drawn) [Compound 376] | IC50 (MOLM14; Homo sapiens, MOLM-14, 192 h): > 3.75 µM |
| 27.8 nM | 2.73 µM | Cn1c(=O)[nH]c2cc(NC3CC4(CCN(c5ncnc6sc(CC(F)(F)F)cc56)C4)C3)ccc21 (stereo not drawn) [Compound 89] |  |
| 27.2 nM |  | Nc1nc(N2CCC3(CC(Nc4ccc5[nH]c(=O)oc5c4)C3)C2)c2cc(CC(F)(F)F)sc2n1 (single isomer, unassigned) [Compound 385] | IC50 (MV-4-11): > 3.75 µM |
| 26.4 nM | 3.66 µM | O=c1[nH]c2ccc(NC3CC4(CCN(c5ncnc6sc(CC(F)(F)F)cc56)C4)C3)cc2o1 (single isomer, unassigned) [Compound 323] |  |
| 20.1 nM | 0.91 µM | FC(F)(F)Cc1cc2c(N3CCC4(CC(Nc5ccc(-c6cn[nH]c6)cc5)C4)C3)ncnc2s1 (mixture of isomers) [Compound 326] |  |
| 19.6 nM | 1.26 µM | CC(=O)Nc1ccc(NC2CC3(CCN(c4ncnc5sc(CC(F)(F)F)cc45)C3)C2)cc1 (mixture of isomers) [Compound 330] |  |
| 18.2 nM | 2.13 µM | N#CCc1ccc(NC2CC3(CCN(c4ncnc5sc(CC(F)(F)F)cc45)C3)C2)cc1Cl (single isomer, unassigned) [Compound 211] |  |
| 18 nM |  | CS(=O)(=O)N[C@H]1CC[C@@H](NC2CC3(CCN(c4ncnc5sc(CC(F)(F)F)cc45)C3)C2)CC1 (stereo partly drawn) [Compound 272] | IC50 (MOLM14): 2.56 µM |
| 17.8 nM | 1.8 µM | CNc1nc(N2CCC3(CC(Nc4ccc5oc(=O)[nH]c5c4)C3)C2)c2cc(CC(F)(F)F)sc2n1 (mixture of isomers) [Compound 396] |  |
| 11 nM | 2.77 µM | O=C1Cc2ccc(N[C@@H]3CCC4(C3)CN(c3ncnc5sc(CC(F)(F)F)cc35)C4)cc2N1 (single isomer, unassigned) [Compound 293] |  |
| 8.8 nM | 1.26 µM | CNS(=O)(=O)c1ccc(NC2CC3(CCN(c4ncnc5sc(CC(F)(F)F)cc45)C3)C2)cc1 (mixture of isomers) [Compound 316] |  |
| 5.3 nM | 0.48 µM | FC(F)(F)Cc1cc2c(N3CCC4(CC(Nc5ccc(-c6cc[nH]n6)cc5)C4)C3)ncnc2s1 (stereo not drawn) [Compound 92] |  |
| 5.1 nM |  | CS(=O)(=O)N1CC(CC(C#N)c2ccc(NC3CC4(CCN(c5ncnc6sc(CC(F)(F)F)cc56)C4)C3)cc2)C1 (stereo not drawn) [Compound 339] | IC50 (MOLM14; Homo sapiens, MOLM-14, 192 h): 2.41 µM |
